Reference: US8778951B2, “Heteroaryl compounds and their uses” (Novartis AG, priority 2009, dated 2014)

Each molecule was assayed against Cdk9/cyclinT1 (Homo sapiens (Human), UniProt P50750) (assay: Cdk9/CyclinT1 IMAP Protocol (fluorescence polarization kinase assay)). Details: Table 2; generated using one of the two Cdk9/cyclinT1 assays (IMAP or Alpha Screen), not specified which; unit inferred.
Assay type: biochemical
Method: Cdk9/CyclinT1 IMAP Protocol
The biological activity of the compounds of the invention can be determined using the assay described below.
Cdk9/cyclinT1 is purchased from Millipore, cat #14-685. The final total protein concentration in the assay 4 nM. […] The final concentration of peptide substrate is 100 nM. The ATP substrate (Adenosine-5′-triphosphate) is purchased from Roche Diagnostics, cat#1140965. The final concentration of ATP substrate is 6 uM. IMAP (Immobilized Metal Assay for Phosphochemicals) Progressive Binding reagent is purchased from Molecular Devices, cat#R8139. Fluorescence polarization (FP) is used for detection. The 5TAMRA-cdk7tide peptide is phosphorylated by Cdk9/cyclinT1 kinase using the ATP substrate. The Phospho-5TAMRA-cdk7tide peptide substrate is bound to the IMAP Progressive Binding Reagent. The binding of the IMAP Progressive Binding Reagent changes the fluorescence polarization of the 5TAMRA-cdk7tide peptide which is measured at an excitation of 531 nm and FP emission of 595 nm. Assays are carried out in 100 mM Tris, pH=7.2, mM MgCl2, 0.05% NaN3, 0.01% Tween-20, 1 mM dithiothreitol and 2.5% dimethyl sulfoxide. IMAP Progressive Binding Reagent is diluted 1:800 in 100% 1× Solution A from Molecular Devices, cat#R7285.
General protocol is as follows: To 10 ul of cdk9/cyclinT1, 0.5 ul of test compound in dimethyl sulfoxide is added. 5TAMRA-cdk7tide and ATP are mixed. 10 ul of the 5TAMRA-cdk7tide/ATP mix is added to start the reaction. The reaction is allowed to proceed for 4.5 hrs. 60 uL of IMAP Progressive Binding Reagent is added. After >1 hr of incubation, plates are read on the Envision 2101 from Perkin-Elmer. The assay is run in a 384-well format using black Corning plates, cat#3573.

Chain of Cdk9/cyclinT1 (P50750 whole entry): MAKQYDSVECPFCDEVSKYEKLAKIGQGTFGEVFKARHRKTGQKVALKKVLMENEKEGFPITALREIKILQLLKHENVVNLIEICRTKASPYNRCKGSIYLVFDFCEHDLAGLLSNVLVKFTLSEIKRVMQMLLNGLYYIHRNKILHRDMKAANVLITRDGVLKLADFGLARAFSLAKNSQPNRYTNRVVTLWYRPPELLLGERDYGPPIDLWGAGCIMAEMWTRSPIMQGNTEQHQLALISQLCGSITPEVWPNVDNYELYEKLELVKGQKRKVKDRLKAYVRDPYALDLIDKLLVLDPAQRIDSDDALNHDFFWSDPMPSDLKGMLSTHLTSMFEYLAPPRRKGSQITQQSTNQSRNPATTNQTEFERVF
Chain of Cdk9/cyclinT1 (O60563 whole entry partner): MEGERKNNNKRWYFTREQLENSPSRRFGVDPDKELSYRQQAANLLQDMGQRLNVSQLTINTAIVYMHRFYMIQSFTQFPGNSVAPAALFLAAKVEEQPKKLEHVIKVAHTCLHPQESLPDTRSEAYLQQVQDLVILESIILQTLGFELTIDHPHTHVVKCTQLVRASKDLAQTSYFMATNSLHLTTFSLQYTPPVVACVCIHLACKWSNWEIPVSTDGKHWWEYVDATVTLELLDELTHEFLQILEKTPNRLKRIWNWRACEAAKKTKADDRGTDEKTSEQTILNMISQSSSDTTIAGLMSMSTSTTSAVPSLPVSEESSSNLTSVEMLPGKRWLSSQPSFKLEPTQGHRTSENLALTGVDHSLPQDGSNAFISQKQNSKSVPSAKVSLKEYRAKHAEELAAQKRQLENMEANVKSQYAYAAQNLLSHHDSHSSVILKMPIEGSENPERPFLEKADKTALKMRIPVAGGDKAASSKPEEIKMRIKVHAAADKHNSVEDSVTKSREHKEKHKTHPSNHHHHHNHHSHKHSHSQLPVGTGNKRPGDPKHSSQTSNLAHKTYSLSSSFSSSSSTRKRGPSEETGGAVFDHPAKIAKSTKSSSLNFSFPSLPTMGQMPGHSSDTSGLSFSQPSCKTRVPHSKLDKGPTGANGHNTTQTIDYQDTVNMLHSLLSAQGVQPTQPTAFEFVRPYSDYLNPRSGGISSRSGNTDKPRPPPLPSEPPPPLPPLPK

Row | IC50 | SMILES
1 | 1 nM | CC1(C)OC[C@@H](CN[C@H]2CC[C@H](Nc3cc(-c4nc(NCC5CCOCC5)ccc4Cl)c(Cl)cn3)CC2)O1 [Compound 320, 3,5′-dichloro-N2′-(trans-4-(((R)-2,2-dimethyl-1,3-dioxolan-4-yl)methyl)aminocyclohexyl)-N6-((tetrahydro-2H-pyran-4-yl)methyl)-2,4′-bipyridine-2′,6-diamine]
2 | 7.94 nM | Clc1cnc(N[C@H]2CC[C@H](NC[C@@H]3CCCO3)CC2)cc1-c1cccc(NCC2CCOCC2)n1 [Compound 278]
3 | 26 nM | CN(C)CCCCNc1cc(-c2cccc(NCc3cccc(F)c3)n2)c(Cl)cn1 [Compound 161]
4 | 35 nM | COC[C@@H](C)N[C@H]1CC[C@H](Nc2cc(-c3nc(NCC4CCOCC4)ccc3C(F)(F)F)c(Cl)cn2)CC1 [Compound 309]
5 | 1 nM | N[C@H]1CC[C@H](Nc2cc(-c3cccc(NCC4(F)CCOCC4)n3)c(Cl)cn2)CC1 [Compound 313, N2′-(trans-4-aminocyclohexyl)-5′-chloro-N6-((4-fluorotetrahydro-2H-pyran-4-yl)methyl)-2,4′-bipyridine-2′,6-diamine]
6 | 522 nM | NC(=O)c1ccc(-c2cc(N[C@H]3CC[C@H](N)CC3)ncc2Cl)nc1NCc1cccc(F)c1 [Compound 14, 2′-((1r,4r)-4-aminocyclohexylamino)-5′-chloro-6-(3-fluorobenzylamino)-2,4′-bipyridine-5-carboxamide]
7 | 7.95 nM | N[C@H]1CC[C@H](Nc2cc(-c3cncc(NCC4CCCOC4)n3)c(Cl)cn2)CC1 (stereo partly shown) [Compound 228]
8 | 116 nM | CC(=O)NCCNc1cccc(-c2cc(N[C@H]3CC[C@H](O)CC3)ncc2Cl)n1 [Compound 124]
9 | 23.6 nM | NC(=O)c1cc(NCc2cccc(F)c2)nc(-c2cc(N[C@H]3CC[C@H](N)CC3)ncc2Cl)c1 [Compound 16, 2′-(trans-4-aminocyclohexylamino)-5′-chloro-6-(3-fluorobenzylamino)-2,4′-bipyridine-4-carboxamide]
10 | 7.94 nM | N[C@H]1CC[C@H](Nc2cc(-c3cncc(NC[C@@H]4CCCOC4)n3)c(Cl)cn2)CC1 [Compound 262]
11 | 0.23 nM | COC[C@@H](C)N[C@H]1CC[C@H](Nc2cc(-c3ccc(F)c(NCC4(C#N)CCOCC4)n3)c(Cl)cn2)CC1 [Compound 340, 4-((5′-chloro-5-fluoro-2′-(trans-4-((R)-1-methoxypropan-2-yl-amino)cyclohexylamino)-2,4′-bipyridin-6-ylamino)methyl)tetrahydro-2H-pyran-4-carbonitrile]
12 | 7.95 nM | OCCCNc1cc(-c2cccc(NCc3cccc(F)c3)n2)c(Cl)cn1 [Compound 146]
13 | 8 nM | COC[C@@H](C)N[C@H]1CC[C@H](Nc2cc(-c3cccc(NCC4COC(C)(C)CO4)n3)c(Cl)cn2)CC1 (stereo partly drawn) [Compound 307, 5′-chloro-N6-((5,5-dimethyl-1,4-dioxan-2-yl)methyl)-N2′-(trans-4-((R)-1-methoxypropan-2-yl-amino)cyclohexyl)-2,4′-bipyridine-2′,6-diamine]
14 | 11.6 nM | CN1CCC[C@H]1C(=O)NC[C@H]1CC[C@H](Nc2cc(-c3cccc(NCc4cccc(F)c4)n3)c(Cl)cn2)CC1 [Compound 83]
15 | 12.6 nM | Fc1cccc(CNc2cccc(-c3cc(NC4CCCC4)ncc3Cl)n2)c1 [Compound 140]
16 | 19.4 nM | COCCCNc1cc(-c2cccc(NCc3cccc(F)c3)n2)c(Cl)cn1 [Compound 147]
17 | 4 nM | CC1(CN[C@H]2CC[C@H](Nc3cc(-c4ccc(F)c(NCC5CCOCC5)n4)c(Cl)cn3)CC2)OCCO1 [Compound 333, 5′-chloro-5-fluoro-N2′-(trans-4-((2-methyl-1,3-dioxolan-2-yl)methyl)aminocyclohexyl)-N6-((tetrahydro-2H-pyran-4-yl)methyl)-2,4′-bipyridine-2′,6-diamine]
18 | 7.95 nM | O[C@H]1CC[C@H](Nc2cc(-c3cnc(Cl)c(NCC4CCOCC4)n3)c(Cl)cn2)CC1 [Compound 222, trans-4-(5-chloro-4-(5-chloro-6-((tetrahydro-2H-pyran-4-yl)methyl)aminopyrazin-2-yl)pyridin-2-yl-amino)cyclohexanol]
19 | 7.94 nM | O[C@H]1CC[C@@H](Nc2cc(-c3cccc(NCc4cccc(F)c4)n3)c(Cl)cn2)C1 [Compound 183]
20 | 9.05 nM | CN(C)CC(=O)NC[C@H]1CC[C@H](Nc2cc(-c3cccc(NCc4cccc(F)c4)n3)c(Cl)cn2)CC1 [Compound 82]
21 | 99 nM | [2H]C([2H])(Nc1cccc(-c2cc(N[C@H]3CC[C@H](NC[C@@H]4CCCO4)CC3)ncc2Cl)n1)C1CCOCC1 [Compound 317, 5′-chloro-N6-(dideutero-(tetrahydro-2H-pyran-4-yl)methyl)-N2′-(trans-4-(((S)-tetrahydrofuran-2-yl)methyl)aminocyclohexyl)-2,4′-bipyridine-2′,6-diamine]
22 | 37 nM | Fc1cccc(CNc2cccc(-c3cc(NCCN4CCNCC4)ncc3Cl)n2)c1 [Compound 168]

Row | IC50 | SMILES
23 | 155 nM | O[C@H]1CC[C@H](Nc2cc(-c3cccc(NCC4CCNCC4)n3)c(Cl)cn2)CC1 [Compound 119]
24 | 0.31 nM | CCCN(CCC)[C@H]1CC[C@H](Nc2cc(-c3ccc(F)c(NCC4(C#N)CCOCC4)n3)c(Cl)cn2)CC1 [Compound 343]
25 | 7.94 nM | N[C@@H]1CC[C@@H](Nc2cc(-c3cccc(NCc4cccc(F)c4)n3)c(Cl)cn2)C1 [Compound 191, N2′-((1R,3R)-3-aminocyclopentyl)-5′-chloro-N6-(3-fluorobenzyl)-2,4′-bipyridine-2′,6-diamine]
26 | 390 nM | O[C@H]1CC[C@H](Nc2cc(-c3cccc(NC4CCOCC4)n3)c(Cl)cn2)CC1 [Compound 129]
27 | 7.94 nM | COCCN[C@H]1CC[C@H](Nc2cc(-c3cccc(NCc4cc(F)cc(F)c4)n3)c(Cl)cn2)CC1 [Compound 193]
28 | 27 nM | Fc1cccc(CNc2cccc(-c3cc(NC[C@@H]4CCCNC4)ncc3Cl)n2)c1 [Compound 166]
29 | 6190 nM | Clc1cnc(NC[C@@H]2CCCN2)cc1-c1cccc(NCC2CCOCC2)n1 [Compound 304]
30 | 7.95 nM | COCCN[C@H]1CC[C@H](Nc2cc(-c3cncc(NCC4CCOCC4)n3)c(Cl)cn2)CC1 [Compound 243, trans-N1-(5-chloro-4-(6-((tetrahydro-2H-pyran-4-yl)methyl)aminopyrazin-2-yl)pyridin-2-yl)-N4-(2-methoxyethyl)cyclohexane-1,4-diamine]
31 | 100 nM | COC[C@H]1CC[C@H](Nc2cc(-c3cccc(NCc4cccc(F)c4)n3)c(Cl)cn2)CC1 [Compound 190]
32 | 7.94 nM | N[C@H]1CC[C@H](Nc2cc(-c3nc(NCC4CCOCC4)ccc3Cl)c(F)cn2)CC1 [Compound 260, N2′-(trans-4-aminocyclohexyl)-3-chloro-5′-fluoro-N6-((tetrahydro-2H-pyran-4-yl)methyl)-2,4′-bipyridine-2′,6-diamine]
33 | 7.94 nM | Clc1cnc(N[C@H]2CC[C@H](NC[C@H]3CCCO3)CC2)cc1-c1cccc(NCC2CCOCC2)n1 [Compound 277]
34 | 141 nM | N[C@H]1CC[C@H](Nc2cc(-c3cccc(NC[C@H]4CCCO4)n3)c(Cl)cn2)CC1 [Compound 104]
35 | 154 nM | Clc1cnc(NC2CCNCC2)cc1-c1cccc(NCc2ccccc2)n1 [Compound 69]
36 | 0.28 nM | CCN[C@H]1CC[C@H](Nc2cc(-c3cccc(NCC4(C#N)CCOCC4)n3)c(Cl)cn2)CC1 [Compound 360, 4-((5′-chloro-2′-((1r,4r)-4-(ethylamino)cyclohexylamino)-2,4′-bipyridin-6-ylamino)methyl)tetrahydro-2H-pyran-4-carbonitrile]
37 | 50.2 nM | CNC(=O)[C@H]1CC[C@H](Nc2cc(-c3cccc(NCc4cccc(F)c4)n3)c(Cl)cn2)CC1 [Compound 113]
38 | 10 nM | COC[C@@H](C)N[C@H]1CC[C@H](Nc2cc(-c3nc(NCC4CCCCO4)ccc3Cl)c(Cl)cn2)CC1 (stereo in doubt) [Compound 325, 3,5′-dichloro-N2′-(trans-4-((R)-1-methoxypropan-2-yl-amino)cyclohexyl)-N6-(((R)-tetrahydro-2H-pyran-2-yl)methyl)-2,4′-bipyridine-2′,6-diamine]
39 | 2 nM | Fc1ccc(-c2cc(N[C@H]3CC[C@H](NCC4CCO4)CC3)ncc2Cl)nc1NCC1CCOCC1 (stereo partly drawn) [Compound 324, 5′-chloro-5-fluoro-N2′-(trans-4-(oxetan-2-yl-methylamino)cyclohexyl)-N6-((tetrahydro-2H-pyran-4-yl)methyl)-2,4′-bipyridine-2′,6-diamine]
40 | 2 nM | O[C@@H](CN[C@H]1CC[C@H](Nc2cc(-c3nc(NCC4CCOCC4)ccc3Cl)c(Cl)cn2)CC1)C(F)(F)F [Compound 290]
41 | 7.94 nM | O[C@H]1CC[C@H](Nc2cc(-c3cncc(NC[C@H]4CCCOC4)n3)c(Cl)cn2)CC1 [Compound 263]
42 | 7.9 nM | COCCN[C@H]1CC[C@H](Nc2cc(-c3cccc(NCc4cccc(F)c4)n3)c(Cl)cn2)CC1 [Compound 157]
43 | 336 nM | Fc1cccc(CNc2cccc(-c3cc(N[C@@H]4CCCNC4)ncc3Cl)n2)c1 [Compound 91]
